The values below come from ChEMBL document CHEMBL1201862, “PubChem BioAssay data set” (2004).

Test systems include MDA-MB-435; A498; OVCAR-3; U-251; DU-145; OVCAR-5; IGROV-1; KM12; Hs-578T; HCT-116; SF-295; Malme-3M; MOLT-4; SNB-19; CAKI-1; SK-MEL-28; A549; SK-OV-3; K562.
What all share (assay): inhibition of tumour cell growth, NCI panel, 48 h

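A five-concentration, 48-hour dose response in 96-well plates underlies each endpoint, interpolated linearly between surrounding concentrations. GI50 is the concentration that inhibits growth by half.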 The source made the active and inactive calls. No stated cut-off is given here; in the data, active = GI50 up to about 1.1 µM and inactive = higher.

In the case of `CC1=C(O)C(=O)C[C@]2(C)[C@H]3CC=C4[C@@H]5CC(C)(C)CC[C@@H]5C(=O)[C@H](O)[C@@]4(C)[C@]3(C)CC[C@@H]12`, the GI50 with MDA-MB-435 is > 50 µM (inactive); in the assay on A498 it was > 50 µM (inactive); in the assay on OVCAR-3 it was > 50 µM (inactive); with U-251, 27.5 µM (inactive); in the assay on DU-145, > 50 µM (inactive); with OVCAR-5 it was > 50 µM (inactive). In addition, the GI50 in the assay on IGROV-1 is 21.8 µM (inactive); in the assay with KM12 it was > 50 µM (inactive); with Hs-578T, 25.1 µM (inactive); with HCT-116, > 50 µM (inactive); in the assay on SF-295, 37.8 µM (inactive); in the assay with Malme-3M, > 50 µM (inactive). Also, the GI50 in the assay with MOLT-4 is > 50 µM (inactive); in the assay on SNB-19 it was > 50 µM (inactive); with CAKI-1, > 50 µM (inactive); in the assay with SK-MEL-28 it was > 50 µM (inactive); in the assay with A549, 24.8 µM (inactive); in the assay with SK-OV-3 it was > 50 µM (inactive).
For the molecule `O=c1c2ncn(COCCCl)c2n(-c2ccccc2)c(=S)n1-c1ccccc1`, the GI50 in the assay on MDA-MB-435, in the assay with A498, in the assay on OVCAR-3, in the assay on U-251, in the assay on DU-145 and in the assay on OVCAR-5 was > 100 µM (inactive) each time. Besides, the GI50 in the assay with IGROV-1, in the assay with KM12, with Hs-578T, in the assay with HCT-116, in the assay with SF-295 and in the assay on Malme-3M was > 100 µM (inactive) throughout. In addition, the GI50 with MOLT-4, with SNB-19, in the assay with CAKI-1, in the assay on SK-MEL-28, with A549 and in the assay on SK-OV-3 was > 100 µM (inactive) each time. In addition, the GI50 in the assay on K562 was > 100 µM (inactive).
In the case of `CC(C)(C)OC(=O)NCCCC(=O)NC1(c2cc3ccccc3s2)CCCCC1`, the GI50 with MDA-MB-435 is 15.4 µM (inactive); in the assay with A498, 17.6 µM (inactive); with OVCAR-3 it was 16.3 µM (inactive); in the assay with DU-145 it was 24.8 µM (inactive); in the assay with IGROV-1 it was 18 µM (inactive); in the assay on KM12, 17 µM (inactive). For the same molecule, the GI50 is 24.6 µM (inactive) in the assay on Hs-578T; 14 µM (inactive) in the assay on HCT-116; 16.6 µM (inactive) with SF-295; 16.2 µM (inactive) with Malme-3M; 14.6 µM (inactive) in the assay with MOLT-4; 34.8 µM (inactive) in the assay on SNB-19. Besides, the GI50 is 22.1 µM (inactive) in the assay on CAKI-1; 14.1 µM (inactive) with SK-MEL-28; 25.6 µM (inactive) in the assay on A549; 29.6 µM (inactive) with SK-OV-3; 19.5 µM (inactive) in the assay with K562.
As to `c1ccc(COC2NCCN2Cc2ccccc2)cc1` (stereo not drawn), the GI50 in the assay with MDA-MB-435 was > 100 µM (inactive); in the assay with A498 it was 41.7 µM (inactive); in the assay on OVCAR-3, > 100 µM (inactive); in the assay with U-251, > 100 µM (inactive); in the assay with DU-145 it was > 100 µM (inactive); in the assay with OVCAR-5, > 100 µM (inactive). Besides, the GI50 in the assay on IGROV-1 is > 100 µM (inactive); in the assay with KM12, > 100 µM (inactive); with Hs-578T it was 5.64 µM (inactive); with HCT-116, > 100 µM (inactive); in the assay with SF-295, > 100 µM (inactive); with Malme-3M, > 100 µM (inactive). Moreover, the GI50 in the assay on MOLT-4, with SNB-19, in the assay on CAKI-1, with SK-MEL-28, with A549 and in the assay on SK-OV-3 was > 100 µM (inactive) throughout. Also, the GI50 with K562 was > 100 µM (inactive).
As to `C[n+]1c2ccccc2n2c3ccccc3c(NCCCN3CCOCC3)c(C#N)c21`, the GI50 with MDA-MB-435 is 1.78 µM (inactive); in the assay with A498, 8.87 µM (inactive); in the assay with OVCAR-3, 2.61 µM (inactive); in the assay on U-251, 1.52 µM (inactive); with DU-145, 2.13 µM (inactive); in the assay with OVCAR-5, 1.44 µM (inactive). Also, the GI50 with KM12 is 1.61 µM (inactive); in the assay with Hs-578T, 1.41 µM (inactive); in the assay with HCT-116 it was 0.703 µM (active); in the assay with SF-295 it was 2.8 µM (inactive); in the assay with Malme-3M it was 2.05 µM (inactive); with MOLT-4 it was 0.498 µM (active). Moreover, the GI50 in the assay on SNB-19 was 3.08 µM (inactive); in the assay with CAKI-1, 2.45 µM (inactive); with SK-MEL-28 it was 3.32 µM (inactive); with A549 it was 3.33 µM (inactive); with SK-OV-3, 2.5 µM (inactive); with K562 it was 1.73 µM (inactive).
On to `Cn1c2ccccc2c2c(-c3ccccc3)[n+]3ccccc3nc21`, for which the GI50 in the assay with MDA-MB-435 is 20.6 µM (inactive); in the assay with A498 it was > 100 µM (inactive); in the assay on OVCAR-3, 23.3 µM (inactive); in the assay on U-251 it was 24.8 µM (inactive); in the assay on DU-145 it was 53.3 µM (inactive); with OVCAR-5, 50.9 µM (inactive). In addition, the GI50 was 26.7 µM (inactive) in the assay on IGROV-1; 17.1 µM (inactive) in the assay on KM12; 34.8 µM (inactive) in the assay with Hs-578T; 46.3 µM (inactive) with SF-295; 24.3 µM (inactive) in the assay with Malme-3M; 42.2 µM (inactive) with MOLT-4. Moreover, the GI50 with SNB-19 is 65.8 µM (inactive); with CAKI-1, > 100 µM (inactive); in the assay with SK-MEL-28 it was 20.5 µM (inactive); with A549 it was 52.7 µM (inactive); with SK-OV-3, > 100 µM (inactive); with K562 it was 34 µM (inactive).
Take `COc1ccc2cc3c4cc5c(cc4cc[n+]3cc2c1OC)OCO5`: the GI50 was 6.95 µM (inactive) in the assay with MDA-MB-435; > 100 µM (inactive) in the assay on A498; 3.87 µM (inactive) in the assay on OVCAR-3; 0.615 µM (active) in the assay on U-251; 30.3 µM (inactive) with DU-145; 47.5 µM (inactive) with OVCAR-5. The GI50 in the assay on IGROV-1 was 8.11 µM (inactive); in the assay on KM12, 2.88 µM (inactive); in the assay with Hs-578T it was 3.26 µM (inactive); in the assay with HCT-116 it was 15.1 µM (inactive); in the assay on SF-295, 5.53 µM (inactive); with Malme-3M, 4.83 µM (inactive). For the same molecule, the GI50 in the assay on MOLT-4 is 8.53 µM (inactive); in the assay with SNB-19 it was 3.15 µM (inactive); in the assay on SK-MEL-28, 5.33 µM (inactive); with A549 it was 18.3 µM (inactive); in the assay on SK-OV-3 it was 29.4 µM (inactive); with K562, 16.6 µM (inactive).
On to `CC(=N\N=C\c1ccccn1)/C(C)=N/N=C/c1ccccn1`, for which the GI50 is 42.9 µM (inactive) with MDA-MB-435; > 100 µM (inactive) in the assay on A498; > 100 µM (inactive) in the assay with OVCAR-3; > 100 µM (inactive) in the assay on U-251; > 100 µM (inactive) in the assay on DU-145; > 100 µM (inactive) in the assay on OVCAR-5. Further, the GI50 in the assay with IGROV-1, with KM12, in the assay with Hs-578T, with HCT-116, in the assay on SF-295 and in the assay with Malme-3M was > 100 µM (inactive) each time. For the same molecule, the GI50 with MOLT-4 is > 10 µM (inactive); in the assay on SNB-19, > 100 µM (inactive); in the assay with CAKI-1, > 100 µM (inactive); with SK-MEL-28 it was > 100 µM (inactive); in the assay with A549, > 100 µM (inactive); with SK-OV-3, > 100 µM (inactive).
For `CN(C(=O)Cc1cc(Cl)c(Cl)cc1NC(=O)CN)[C@H]1CCCC[C@@H]1N1CCCC1`, the GI50 was 16.1 µM (inactive) in the assay on MDA-MB-435; 20.2 µM (inactive) in the assay with A498; 38.8 µM (inactive) in the assay on OVCAR-3; 17.8 µM (inactive) with U-251; > 100 µM (inactive) in the assay with DU-145; > 100 µM (inactive) in the assay with OVCAR-5. Besides, the GI50 in the assay on IGROV-1 was > 100 µM (inactive); in the assay with KM12 it was 47.4 µM (inactive); in the assay on Hs-578T it was 23.1 µM (inactive); in the assay on HCT-116, 30 µM (inactive); in the assay on SF-295, 24.2 µM (inactive); in the assay on Malme-3M, 20.8 µM (inactive). For the same molecule, the GI50 is > 100 µM (inactive) with MOLT-4; 45.8 µM (inactive) with SNB-19; > 100 µM (inactive) in the assay with CAKI-1; 39.1 µM (inactive) in the assay with A549; > 100 µM (inactive) in the assay with SK-OV-3; 24.7 µM (inactive) in the assay on K562.
For the molecule `Cc1cccc(/C=N/NC(=S)N2CCCCCC2)n1`, the GI50 was 1.3 µM (inactive) in the assay with MDA-MB-435; 0.449 µM (active) in the assay on A498; < 0.01 µM (active) in the assay on OVCAR-3; < 0.0417 µM (active) in the assay on U-251; 0.254 µM (active) with DU-145; < 0.0399 µM (active) in the assay with IGROV-1. Further, the GI50 is 0.23 µM (active) in the assay with KM12; 9.59 µM (inactive) with Hs-578T; < 0.01 µM (active) with HCT-116; 0.331 µM (active) with SF-295; 0.313 µM (active) in the assay with Malme-3M; < 0.01 µM (active) in the assay on MOLT-4. The GI50 was 0.543 µM (active) in the assay on SNB-19; 0.369 µM (active) in the assay on CAKI-1; 0.608 µM (active) in the assay with SK-MEL-28; 0.111 µM (active) in the assay on A549; 0.556 µM (active) in the assay with SK-OV-3; < 0.01 µM (active) with K562.
Turning to `O=C(c1ccco1)N1CCCN(C(=O)c2ccco2)C1=S`, the GI50 in the assay with MDA-MB-435, in the assay on A498, with OVCAR-3, in the assay on U-251, with DU-145 and in the assay on OVCAR-5 was > 100 µM (inactive) in each case. Besides, the GI50 with IGROV-1 is 41.6 µM (inactive); in the assay with KM12, 82 µM (inactive); with Hs-578T, > 100 µM (inactive); with HCT-116 it was > 100 µM (inactive); in the assay with Malme-3M, 33 µM (inactive); in the assay with MOLT-4 it was > 100 µM (inactive). The GI50 in the assay on SNB-19, in the assay on CAKI-1, with SK-MEL-28, in the assay with SK-OV-3 and with K562 was > 100 µM (inactive) in each case.
